Source: patent US12441763B2, “Hangtaimycin derivatives and their preparation methods and application” (WUHAN UNIVERSITY, priority 2022, dated 2025)
Numbered stars: 1 amine (or outer) side, 2 acyl side, 3 side chain; on linkers, the order of the positions; unused ones are H or OH. Square brackets hold non-standard residues; d marks the D form. Peptide text beside a SMILES is read from it. * marks the point of attachment. X3 = O=C1C=C(CCC/C=C/C=C/C(=O)[*:2])CC(C(O)N[*:1])O1; X4 = O=C1C=C(CCC/C=C/C=C/C(=O)[*:2])CC(CN[*:1])O1; NMeW = CN[CH](Cc1c[nH]c2ccccc12)C(=O)O; X2 = C/C(=C\C(C)N[*:1])C(=O)[*:2]; Dhb = C/C=C(\N)C(=O)O; X1 = C/C=C/C=C\C(=O)*; Dha = C=C(N)C(=O)O

How the values were obtained:
breast cancer = experiment: Antitumor activity, MTT cell viability, breast cancer; assay type: cell-based; details: 50 μg/mL, 24 hours
Protocol: (§1) In a 96-well microplate, 100 μL of culture medium was put in each well and inoculate four cell strains with a fusion degree of 80% at a density of 8×10^3 cells. Cells were grown at 37° C., CO2 (5%) and air (95%). Each 96-well plate was placed with a concentration gradient of 0˜100 μg/mL of test compounds HTM, HTMA, HTMB, and HTMP. After 24 hours of incubation, the medium was removed, and 0.5 mg/mL MTT solution was added to each medium with cells and continue to incubate the cells for 4 hours at 37° C. Then 100 μL of DMSO was added to dissolve formazan crystals. Finally, absorbance was measured at 570 nm using a microplate reader (Bioteck EON, USA). The viability of the cells was calculated as the percentage of cell viability compared to vehicle control-treated cells, which were arbitrarily assigned as 100% viability. Each independent experiment was repeated five times. (*P<0.05, **P<0.01, ***P<0.001)

[1] = test system: morphine reward memory reconsolidation; experiment: Drug reward memory reconsolidation, morphine; assay type: in vivo, SD rats; details: 3 mg/kg i.p. after exposure to drug-paired box; group II vs group I; 7th day after reward memory activation; P<0.05
Protocol: (§2) Drug reward memory reconsolidation: Morphine, an opioid representative, and cocaine, a euphoric representative, were used to establish model addiction. On the first day, baseline was assessed by placing the rats in the center compartment of the CPP apparatus and allowing ad libitum access to all compartments for 15 minutes. And then, male SD rats were divided into the saline+morphine group, the HTMB (3 mg/kg)+morphine group, the saline+cocaine group, and the HTMB (3 mg/kg, i.p.)+cocaine group. The rats were exposed to CPP training from day 2 to 9. On the 10th day, the channel between the three boxes was opened, and the rats were allowed to move freely in the three boxes for 15 minutes for the CPP test. On the 11th day, the CPP expressing rats screened for CPP formation were divided into four groups: the group I (morphine+saline), the group II (morphine+3 mg/kg HTMB), the group III (cocaine+saline), and the group IV (cocaine+3 mg/kg HTMB). After exposure to drug-paired box for 10 minutes, groups I and III were injected with saline (1 ml/kg, i.p.), and the groups II and IV were injected with HTMB (3 mg/kg, i.p.). 24 hours after injection, we defined this as 1 day of activation of the reward memory. The CPP scores were measured on the 7th day after reward memory activation.

renal cancer = experiment: Antitumor activity, MTT cell viability, renal cancer; assay type: cell-based; details: […], 24 hours, P<0.01
Protocol: as §1

[2] = test system: cocaine reward memory reconsolidation; experiment: Drug reward memory reconsolidation, cocaine; assay type: in vivo, SD rats; details: 3 mg/kg i.p. after exposure to drug-paired box; group IV vs group III; 7th day after reward memory activation; P<0.05
Protocol: as §2

bladder cancer = experiment: Antitumor activity, MTT cell viability, bladder cancer; assay type: cell-based; details: 50 μg/mL, 24 hours, P<0.01
Protocol: as §1

[3] = Antioxidant activity, DPPH free radical scavenging; assay type: biochemical; details: 1~50 μg/mL, 0.1 mM DPPH, absorbance at 517 nm
Protocol: In this experiment, a 0.1 mM DPPH solution was prepared with ethanol, and each sample solution/dispersion was separately mixed with the DPPH solution in order to dilute it into a reaction product with a concentration gradient of 1˜50 μg/mL to evaluate the concentration-dependent antioxidant potential. The reaction product was measured for its absorbance (AS) at 517 nm using an ultraviolet-visible spectrophotometer, and its antioxidant activity was measured using DPPH removal as an indicator. The percentage of DPPH free radical scavenging is calculated by the following formula: […]
AS is the absorbance of the sample and A0 is the absorbance of the control (only DPPH solution).

[4] = test system: carrageenan-induced paw inflammation; experiment: Anti-inflammatory effect in inflammatory model induced by carrageenan (paw); assay type: in vivo, Kunming mice; details: 10 mg/mL; for right hind foot thickness: 10 μL subcutaneous into right hind paw, 4 hours after carrageenan injection, vs carrageenan+solvent group
Protocol: Male Kunming mice weighing 18˜22 g were adaptively reared for 1 day, and then randomly divided into […] (5˜6 mice per group): the saline+solvent group, the saline+HTM group, the saline+HTMP group, the saline+HTMA group, the saline+HTMB group, the saline+rapamycin (250 nM) group, the carrageenan+solvent group, the carrageenan+HTM group, the carrageenan+HTMP group, the carrageenan+HTMA group, the carrageenan+HTMB group, and the carrageenan+rapamycin (250 nM) group. Where doses used for HTM, HTMP, HTMA, and HTMB were set at 1, 3, and 10 mg/mL, and their solutions all contained 5% DMSO. Experiments were designed based on previous studies (Zhang et al., 2018). Carrageenan was used to induce paw inflammation, and the experimental procedure was as follows:
(1) The thickness of the right hind foot of mice was measured with a vernier caliper before the experiment, and the measurement site was marked.
(2) The experimental group was then subcutaneously injected into the right hind paw with 10 μL of different concentrations of compound solutions. The control group was injected with 10 μL saline into the right hind paw.
(3) After administration, the carrageenan group was injected subcutaneously with 30 μL of 1% carrageenan solution into the right hind paw, and the other groups were injected with an equal volume of saline. The thickness of the right hind foot of each mouse was measured at the same site every 1 hour for the following 4 hours to observe the effect of the compounds on the change in foot thickness.

HepG2 cells [5] = experiment: Cellular assay for hepatoprotective activity, CCl4-induced liver injury cell model; assay type: cell-based; details: compared with the CCl4 group; HepG2 cell homogenates
Protocol: HepG2 cells were seeded into 24-well plates and kept at 37° C. in 5% CO2 in order to achieve 80% fusion. To evaluate the effects of HTMA, HTMB, and HTMP on aspartate aminotransferase (AST) and alanine aminotransferase (ALT) activity, and compare the results with those of Silymarin (positive control) (FIG. 26), a cellular assay for hepatoprotective activity was carried out using a CCl4-induced liver injury cell model. The cells were treated with the compounds followed by ultrasound disruption and cell homogenization to prepare the cell homogenates for analysis.

[6] = test system: alpha-naphthyl isothiocyanate-induced liver injury; experiment: Animal assay for hepatoprotective activity, alpha-naphthyl isothiocyanate-induced liver injury; assay type: in vivo, Wistar rats
Protocol: Male Wistar rats weighing around 220 g were randomly divided into 7 groups with 12 rats in each group. After grouping, they were fed a standard diet under standard conditions and were orally gavaged continuously. The dosages of the positive control groups obeticholic acid and silymarin were 10 mg/kg and 5 mg/kg respectively. The HTMA group was divided into low, medium, and high-dose groups with doses of 2.5, 5, and 10 mg/kg. The control and model groups were orally gavaged with 0.5% sodium carboxymethyl cellulose (solvent) daily. After 7 days of gavage, the rats fasted for 12 hours. On the 8th day, their weight was measured, and all rats except for the control group were intraperitoneally injected with alpha-naphthyl isothiocyanate (50 mg/kg, dissolved in olive oil) to induce liver injury. The rats in the control group were intraperitoneally injected with the same amount of olive oil. After two more days of gavage and 12 hours of fasting, blood samples were taken to detect biochemical indicators reflecting the degree of liver cell damage (FIGS. 27A˜27C) and bile stasis (FIGS. 28A˜28E), and liver immunohistochemical detection was performed (FIGS. 29A, 29B and 30A˜30F).

HepG2 cells [7] = experiment: Protection of the cell membrane of HepG2 after CCl4 injury (DiO/DAPI confocal imaging); assay type: cell-based; details: HTMA pre-treatment 12 hours, then 70% CCl4 injury fluid 1 hour; vs model group
Protocol: Well-growing HepG2 cells were plated into confocal dishes with 1 mL of cell suspension containing 5×10^5 cells per dish. After 24 hours of incubation, pre-treat the cells with HTMA for 12 hours. The culture medium was removed from the confocal dish, then phenol red-free DMEM medium was added to the control group, 70% CCl4 injury fluid was added to the model and treatment groups. The dishes were placed in a 37° C. incubator for 1 hour to induce liver injury. After modeling, the culture medium was removed, the cells were rinsed with PBS, and fixed with 4% paraformaldehyde at room temperature for 10 minutes. Then the cells were rinsed with PBS three times, each time for 5 minutes. 10 μM DiO was added to the dish and stained the cells at room temperature for 30 minutes. Then the cells were rinsed with PBS three times, each time for 5 minutes. DAPI was dropped to counterstain the cell nucleus, incubating it in the dark for 30 minutes, and then the cells were rinsed with PBS three times. The images of the cells were captured using a laser scanning confocal microscope (Leica TCS SP8). The experimental design includes two positive controls: silymarin(S) and obeticholic acid (OBC).

morphine-induced CPP = experiment: Conditioned place preference (CPP) experiments; assay type: in vivo, SD rats; details: HTMB 3 mg/kg + morphine vs saline + morphine; test on the 10th day; P<0.05
Protocol: Conditioned place preference (CPP) experiments: Morphine, an opioid representative, and cocaine, a euphoric representative, were used to establish a model of addiction. On the first day, the baseline was assessed by placing the rats in the center compartment of the CPP apparatus and allowing ad libitum access to all compartments for 15 minutes. And then, male SD rats were divided into the saline+morphine group, the HTMB (3 mg/kg)+morphine group, the saline+cocaine group, and the HTMB (3 mg/kg, i.p.)+cocaine group. The rats were exposed to CPP training from day 2 to 9. On the 10th day, the channel between the three boxes was opened, and the rats were allowed to move freely in the three boxes for 15 minutes for the CPP test.

[8] = test system: acute inflammatory visceral pain caused by acetic acid; experiment: Writhing test (acetic acid); assay type: in vivo, Balb/c mice; details: 30 minutes before 0.6% acetic acid i.p., counted within 20 minutes, vs solvent group, P<0.05
Protocol: The writhing test: Male Balb/c mice weighting 18˜22 g were randomly divided into four groups (9˜10 per group): the vehicle group (DMSO:saline=1:4, 1 ml/kg), the HTMB (1 mg/kg) group, the HTMB (3 mg/kg) group, and the HTMB (10 mg/kg) group. After tail vein administration for 30 minutes, mice were injected intraperitoneally with 10 mL/kg of freshly prepared 0.6% acetic acid (Rediet Tesfaye, et al. 2020), and the number of body twists of mice was observed and recorded within 20 minutes.

[9] = high-dose HTMA (HH) 10 mg/kg, oral gavage, vs liver injury model group, blood

For `C=C(NC(=O)/C=C\C=C\CCCC1=CC(=O)OC(C(O)NC(=O)C(C)=CC(C)NC(=O)/C=C\C=C\C)C1)C(=O)NC(C(=O)N1C(=O)[C@@H](Cc2c[nH]c3ccccc23)N(C)C(=O)/C1=C/C)C(C)OC` (stereo partly shown) [HTM, Hangtaimycin], the “survival rate of breast cancer” value (breast cancer; P<0.05) was “significantly inhibited”, the “CPP scores, morphine reward memory reconsolidation” value [1] was “inhibit” and the “survival rate of renal cancer” value (renal cancer) was “significantly inhibited”. For the same compound, the “CPP scores, cocaine reward memory reconsolidation” value [2] was “inhibit”, the “survival rate of bladder cancer” value (bladder cancer) was “significantly inhibited” and the “antioxidant capacity (DPPH free radical scavenging)” value [3] was “have antioxidant capacity”.
In the case of `C=C(NC(=O)/C=C/C=C/CCCC1=CC(=O)OC(C(O)NC(=O)/C(C)=C/C(C)NC(=O)/C=C\C=C\C)C1)C(=O)NC(C(=O)N/C(=C\C)C(=O)N(C)C(Cc1c[nH]c2ccccc12)C(=O)OC)C(C)OC` (stereo not shown) [HTMA, Hangtaimycin A] (X1-[X2][X3][Dha]T(Me)[Dhb][NMeW]-OMe; configuration not given here), the “right hind foot thickness” value ([4]; P<0.05) is reported as “reduced”, the ALT levels (HepG2 cells [5]) is reported as “significantly reduced” and the AST levels (HepG2 cells [5]) is reported as “significantly reduced”. The “survival rate of breast cancer” value (breast cancer; P<0.01) was “significantly inhibited”, the “effects on other biochemical indicators relative to high-dose HTMA” value ([6]; 2.5 mg/kg oral gavage (HTMA low dose LH)) was “weaker” and the LDH levels ([6]; 2.5 mg/kg oral gavage (HTMA low dose LH), vs liver injury model group) was “significantly reduced”. For the same compound, the “effects on other biochemical indicators relative to high-dose HTMA” value ([6]; 5 mg/kg oral gavage (HTMA medium dose MH; silymarin)) was “weaker”, the LDH levels ([6]; 5 mg/kg oral gavage (HTMA medium dose MH; silymarin), vs liver injury model group) was “significantly reduced” and the “levels of LDH” value ([6]; 10 mg/kg oral gavage (HTMA high dose HH; obeticholic acid), vs liver injury model group) was “significantly reduce”. For the same compound, the “pathological conditions of liver tissue damage (liver tissue staining)” value ([6]; all doses of HTMA (2.5, 5, 10 mg/kg oral gavage), vs liver injury model group) was “therapeutic effect”, the “levels of ALP” value [6, 9] was “significantly reduce” and the “levels of ALT” value [6, 9] was “significantly reduce”. For the same compound, the “levels of AST” value [6, 9] was “significantly reduce”, the “levels of GGT” value [6, 9] was “significantly reduce” and the “levels of TBA” value [6, 9] was “significantly reduce”. The “levels of TBIL” value [6, 9] was “significantly reduce”, the “cell membrane morphology (DiO fluorescence)” value (HepG2 cells [7]) was “protective effect on the cell membrane” and the “survival rate of bladder cancer” value (bladder cancer) was “significantly inhibited”. The “antioxidant capacity (DPPH free radical scavenging)” value [3] was “does not”.
For `C=C(NC(=O)/C=C/C=C/CCCC1=CC(=O)OC(CNC(=O)/C(C)=C/C(C)NC(=O)/C=C\C=C\C)C1)C(=O)NC(C(=O)N/C(=C\C)C(=O)N(C)C(Cc1c[nH]c2ccccc12)C(=O)OC)C(C)OC` (stereo not shown) [HTMB, Hangtaimycin B] (X1-[X2][X4][Dha]T(Me)[Dhb][NMeW]-OMe; configuration not given here), the “improvement of the inflammation caused by carrageenan, comparison among HTMP, HTMA and HTMB” value [4] was “best results”, the “right hind foot thickness” value ([4]; P<0.05) was “reduced” and the “number of leukocytes per unit area (HE staining)” value ([4]; carrageenan+HTMB group vs carrageenan+solvent group, P<0.05) was “statistical difference”. For the same compound, the ALT levels (HepG2 cells [5]) was “significantly reduced”, the AST levels (HepG2 cells [5]) was “significantly reduced” and the “survival rate of breast cancer” value (breast cancer; P<0.05) was “significantly inhibited”. For the same compound, the “CPP scores, morphine-induced CPP” value (morphine-induced CPP) was “inhibit”, the “number of body twists” value ([8]; 3 mg/kg tail vein) was “significantly lower” and the “number of body twists” value ([8]; 10 mg/kg tail vein) was “significantly lower”. For the same compound, the “survival rate of renal cancer” value (renal cancer) was “significantly inhibited”, the “survival rate of bladder cancer” value (bladder cancer) was “significantly inhibited” and the “antioxidant capacity (DPPH free radical scavenging)” value [3] was “have antioxidant capacity”.
